{
  "source": "ChEMBL document CHEMBL6182945",
  "about": "“MMAE-Based Peptide-Drug Conjugates Targeting GPC3 for Precision Chemoradiotherapy in Hepatocellular Carcinoma” (J Med Chem, 2025)",
  "key": {"Huh-7 [1]": {"tested_on": "Huh-7", "assay": "Induction of radiation induced gamma-H2AX phosphorylation in human irradiated Huh-7 cells at 100 nM measured after 24 hrs by Western blot analysis", "format": "functional, cell-based"}, "Huh-7 [2]": {"tested_on": "Huh-7", "assay": "Cell cycle arrest in human Huh-7 cells assessed as accumulation of cells at G0/G1 phase at 30 nM measured after 24 hrs incubation by PI staining based flow cytometry (reference value: 47.97%)", "format": "functional"}, "Huh-7 [3]": {"tested_on": "Huh-7", "assay": "Cell cycle arrest in human Huh-7 cells assessed as accumulation of cells at S phase at 10 nM measured after 24 hrs incubation by PI staining based flow cytometry (reference value: 33.15%)", "format": "functional"}, "LX-2 [4]": {"tested_on": "LX-2", "assay": "Cell cycle arrest in human LX-2 cells assessed as accumulation of cells at G0/G1 phase at 30 nM measured after 24 hrs incubation by PI staining based flow cytometry (reference value: 48.42%)", "format": "functional"}, "Hep 3B2 [5]": {"tested_on": "Hep 3B2", "assay": "Cell cycle arrest in human Hep3B cells assessed as accumulation of cells at G2/M phase at 30 nM measured after 24 hrs incubation by PI staining based flow cytometry (reference value: 23%)", "format": "functional"}, "Huh-7 [6]": {"tested_on": "Huh-7", "assay": "Cell cycle arrest in human Huh-7 cells assessed as accumulation of cells at phase G2/M at 50 nM measured after 30 hrs incubation by PI staining based flow cytometry (reference value: 18.42%)", "format": "functional"}, "Hep 3B2 [7]": {"tested_on": "Hep 3B2", "assay": "Cell cycle arrest in human Hep3B cells assessed as accumulation of cells at G0/G1 phase at 10 nM measured after 24 hrs incubation by PI staining based flow cytometry (reference value: 48%)", "format": "functional"}, "LX-2 [8]": {"tested_on": "LX-2", "assay": "Cell cycle arrest in human LX-2 cells assessed as accumulation of cells at G2/M phase at 10 nM measured after 24 hrs incubation by PI staining based flow cytometry (reference value: 14.65%)", "format": "functional"}, "LX-2 [9]": {"tested_on": "LX-2", "assay": "Cell cycle arrest in human LX-2 cells assessed as accumulation of cells at S phase at 100 nM measured after 24 hrs incubation by PI staining based flow cytometry (reference value: 36.93%)", "format": "functional"}, "Huh-7 [10]": {"tested_on": "Huh-7", "assay": "In vivo antitumor activity against human Huh-7 cells xenografted in female BALB/c mouse assessed as reduction in Ki67 expression in tumor at 2 mg/kg, iv total 4 doses measured on day 17 relative to control", "format": "functional, organism-based", "details": "time 17.0 day"}, "Huh-7 [11]": {"tested_on": "Huh-7", "assay": "Cell cycle arrest in human Huh-7 cells assessed as accumulation of cells at phase G2/M at 50 nM measured after 18 hrs incubation by PI staining based flow cytometry (reference value: 18.42%)", "format": "functional"}, "Huh-7 [12]": {"tested_on": "Huh-7", "assay": "Cell cycle arrest in human Huh-7 cells assessed as accumulation of cells at S phase at 50 nM measured after 18 hrs incubation by PI staining based flow cytometry (reference value: 37.30%)", "format": "functional"}, "Huh-7 [13]": {"tested_on": "Huh-7", "assay": "Radiosensitivity in human Huh-7 cells assessed as […] pre-treated overnight at 10 nM followed by irradiated with 2 Gy and measured after 14 days post treatment by crystal staining based clonogenic assay relative to compound alone/irradiation alone", "format": "functional", "details": "time 14.0 day"}, "LX-2 [14]": {"tested_on": "LX-2", "assay": "Cell cycle arrest in human LX-2 cells assessed as accumulation of cells at S phase at 30 nM measured after 24 hrs incubation by PI staining based flow cytometry (reference value: 36.93%)", "format": "functional"}, "Huh-7 [15]": {"tested_on": "Huh-7", "assay": "Cell cycle arrest in human Huh-7 cells assessed as accumulation of cells at phase G2/M at 50 nM measured after 24 hrs incubation by PI staining based flow cytometry (reference value: 18.42%)", "format": "functional"}, "Huh-7 [16]": {"tested_on": "Huh-7", "assay": "Cell cycle arrest in human Huh-7 cells assessed as accumulation of cells at G0/G1 phase at 50 nM measured after 18 hrs incubation by PI staining based flow cytometry (reference value: 44.20%)", "format": "functional"}, "Huh-7 [17]": {"tested_on": "Huh-7", "assay": "Cell cycle arrest in human Huh-7 cells assessed as accumulation of cells at S phase at 50 nM measured after 30 hrs incubation by PI staining based flow cytometry (reference value: 37.30%)", "format": "functional"}, "Huh-7 [18]": {"tested_on": "Huh-7", "assay": "Induction of immunogenic cell death (ICD) in human Huh-7 cells assessed as externalization of calreticulin (CALR) on the cell membrane at 100 nM measured after 24 hrs by immunofluorescence assay", "format": "functional, cell-based"}, "Huh-7 [19]": {"tested_on": "Huh-7", "assay": "In vivo antitumor activity against human Huh-7 cells xenografted in female BALB/c mouse assessed as delay in tumor growth at 1 mg/kg, iv for 2 consecutive days, once a week for 3 weeks measured on day 22", "format": "functional, organism-based", "details": "time 22.0 day"}, "Huh-7 [20]": {"tested_on": "Huh-7", "assay": "Induction of DNA damage in human irradiated Huh-7 cells assessed as increase in DNA double break by measuring gamma-H2AX foci formation at 100 nM measured after 24 hrs by immunostaining assay relative to compound alone/irradiation alone", "format": "functional, cell-based"}, "LX-2 [21]": {"tested_on": "LX-2", "assay": "Cell cycle arrest in human LX-2 cells assessed as accumulation of cells at G0/G1 phase at 10 nM measured after 24 hrs incubation by PI staining based flow cytometry (reference value: 48.42%)", "format": "functional"}, "Huh-7 [22]": {"tested_on": "Huh-7", "assay": "Induction of DNA damage in human irradiated Huh-7 cells assessed as increase in DNA double break by measuring number of gamma-H2AX foci formation at 100 nM measured after 24 hrs by immunostaining assay (reference value: 6 +/- 2 foci)", "format": "functional"}, "Huh-7 [23]": {"tested_on": "Huh-7", "assay": "Cell cycle arrest in human Huh-7 cells assessed as accumulation of cells at G2/M phase at 10 nM measured after 24 hrs incubation by PI staining based flow cytometry (reference value: 18.88%)", "format": "functional"}, "Huh-7 [24]": {"tested_on": "Huh-7", "assay": "In vivo antitumor activity against human Huh-7 cells xenografted in female BALB/c mouse assessed as reduction in tumor volume at 0.5 mg/kg, iv total 4 doses measured on day 17 relative to control", "format": "functional", "design": "scale not given: the % may be the effect or the level left", "details": "time 17 day"}, "Huh-7 [25]": {"tested_on": "Huh-7", "assay": "Decrease in CDC25C expression in human irradiated Huh-7 cells at 100 nM measured after 24 hrs by Western blot analysis", "format": "functional, cell-based"}, "Huh-7 [26]": {"tested_on": "Huh-7", "assay": "Cell cycle arrest in human Huh-7 cells assessed as accumulation of cells at G0/G1 phase at 50 nM measured after 24 hrs incubation by PI staining based flow cytometry (reference value: 44.20%)", "format": "functional"}, "Huh-7 [27]": {"tested_on": "Huh-7", "assay": "In vivo antitumor activity against human Huh-7 cells xenografted in female BALB/c mouse assessed as reduction in tumor volume at 2 mg/kg, iv total 4 doses measured on day 17 relative to control", "format": "functional", "design": "scale not given: the % may be the effect or the level left", "details": "time 17 day"}, "Huh-7 [28]": {"tested_on": "Huh-7", "assay": "Cell cycle arrest in human Huh-7 cells assessed as accumulation of cells at S phase at 100 nM measured after 24 hrs incubation by PI staining based flow cytometry (reference value: 33.15%)", "format": "functional"}, "Hep 3B2 [29]": {"tested_on": "Hep 3B2", "assay": "Cell cycle arrest in human Hep3B cells assessed as accumulation of cells at S phase at 30 nM measured after 24 hrs incubation by PI staining based flow cytometry (reference value: 28.91%)", "format": "functional"}, "Hep 3B2 [30]": {"tested_on": "Hep 3B2", "assay": "Cell cycle arrest in human Hep3B cells assessed as accumulation of cells at S phase at 10 nM measured after 24 hrs incubation by PI staining based flow cytometry (reference value: 28.91%)", "format": "functional"}, "[31]": {"biological_target": "Serine/threonine-protein kinase Chk2 (Homo sapiens) (UniProt O96017)", "sequence (O96017 whole entry)": "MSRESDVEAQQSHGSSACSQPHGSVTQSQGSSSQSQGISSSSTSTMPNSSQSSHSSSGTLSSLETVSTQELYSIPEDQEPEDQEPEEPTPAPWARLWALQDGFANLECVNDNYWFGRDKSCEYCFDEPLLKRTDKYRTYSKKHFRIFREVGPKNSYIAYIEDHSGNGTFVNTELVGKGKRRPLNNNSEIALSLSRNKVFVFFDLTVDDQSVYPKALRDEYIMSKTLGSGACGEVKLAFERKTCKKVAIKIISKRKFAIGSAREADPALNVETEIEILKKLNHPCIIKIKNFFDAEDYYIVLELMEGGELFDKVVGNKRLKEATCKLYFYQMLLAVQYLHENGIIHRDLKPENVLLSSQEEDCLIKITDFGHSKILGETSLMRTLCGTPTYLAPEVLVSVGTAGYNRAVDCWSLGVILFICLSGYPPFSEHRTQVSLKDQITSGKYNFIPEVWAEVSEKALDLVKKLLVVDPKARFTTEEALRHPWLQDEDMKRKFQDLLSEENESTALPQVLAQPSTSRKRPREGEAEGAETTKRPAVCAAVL", "assay": "Induction of CHK2 phosphorylation in human irradiated Huh-7 cells at 100 nM measured after 24 hrs by Western blot analysis", "format": "cell-based"}, "Huh-7 [32]": {"tested_on": "Huh-7", "assay": "Cell cycle arrest in human Huh-7 cells assessed as accumulation of cells at S phase at 50 nM measured after 24 hrs incubation by PI staining based flow cytometry (reference value: 37.30%)", "format": "functional"}},
  "note": "The source made the active and inactive calls. The rule behind the calls is not given here.",
  "data": [
    {"smiles": "CC[C@H](C)[C@@H]([C@@H](CC(=O)N1CCC[C@H]1[C@H](OC)[C@@H](C)C(=O)N[C@H](C)[C@@H](O)c1ccccc1)OC)N(C)C(=O)[C@@H](NC(=O)[C@H](C(C)C)N(C)C(=O)OCc1ccc(NC(=O)[C@H](CCCNC(N)=O)NC(=O)[C@@H](NC(=O)CCCCCN2C(=O)CC(SC[C@H](N)C(=O)N[C@@H](CO)C(=O)N[C@@H](CC(N)=O)C(=O)N[C@@H](CC(=O)O)C(=O)N[C@@H](CCCNC(=N)N)C(=O)N3CCC[C@@H]3C(=O)N3CCC[C@@H]3C(=O)N[C@@H](CC(N)=O)C(=O)N[C@H](C(=O)N[C@@H](CC(C)C)C(=O)N[C@@H](CCC(N)=O)C(=O)N[C@@H](CCCCN)C(=O)N[C@@H](CCCNC(=N)N)C(N)=O)[C@@H](C)CC)C2=O)C(C)C)cc1)C(C)C", "note": "(some centres not stated)", "values": [
      {"measurement": "Activity", "setting": "Huh-7 [1]", "value": "Active"},
      {"measurement": "Activity", "setting": "Huh-7 [2]", "value": 37.22, "unit": "%"},
      {"measurement": "Activity", "setting": "Huh-7 [3]", "value": 13.8, "unit": "%"},
      {"measurement": "Activity", "setting": "LX-2 [4]", "value": 46.22, "unit": "%"},
      {"measurement": "Activity", "setting": "Hep 3B2 [5]", "value": 45.12, "unit": "%"},
      {"measurement": "Activity", "setting": "Huh-7 [6]", "value": 54.83, "unit": "%"},
      {"measurement": "Activity", "setting": "Hep 3B2 [7]", "value": 41.26, "unit": "%"},
      {"measurement": "Activity", "setting": "LX-2 [8]", "value": 13.04, "unit": "%"},
      {"measurement": "Activity", "setting": "LX-2 [9]", "value": 37.25, "unit": "%"},
      {"measurement": "Activity", "setting": "Huh-7 [10]", "value": "Active"},
      {"measurement": "Activity", "setting": "Huh-7 [11]", "value": 44.55, "unit": "%"},
      {"measurement": "Activity", "setting": "Huh-7 [12]", "value": 24.32, "unit": "%"},
      {"measurement": "Activity", "setting": "Huh-7 [13]", "value": "Active"},
      {"measurement": "Activity", "setting": "LX-2 [14]", "value": 38.52, "unit": "%"},
      {"measurement": "Activity", "setting": "Huh-7 [15]", "value": 56.79, "unit": "%"},
      {"measurement": "Activity", "setting": "Huh-7 [16]", "value": 31.13, "unit": "%"},
      {"measurement": "Activity", "setting": "Huh-7 [17]", "value": 13.43, "unit": "%"},
      {"measurement": "Activity", "setting": "Huh-7 [18]", "value": "Active"},
      {"measurement": "Activity", "setting": "Huh-7 [19]", "value": "Active"},
      {"measurement": "Activity", "setting": "Huh-7 [20]", "value": "Active"},
      {"measurement": "Activity", "setting": "LX-2 [21]", "value": 48.82, "unit": "%"},
      {"measurement": "Activity", "setting": "Huh-7 [22]", "value": 18},
      {"measurement": "Activity", "setting": "Huh-7 [23]", "value": 35.65, "unit": "%"},
      {"measurement": "Activity", "setting": "Huh-7 [24]", "value": 15, "unit": "%"},
      {"measurement": "Activity", "setting": "Huh-7 [25]", "value": "Active"},
      {"measurement": "Activity", "setting": "Huh-7 [26]", "value": 28.27, "unit": "%"},
      {"measurement": "Activity", "setting": "Huh-7 [27]", "value": 66, "unit": "%"},
      {"measurement": "Activity", "setting": "Huh-7 [28]", "value": 11.54, "unit": "%"},
      {"measurement": "Activity", "setting": "Hep 3B2 [29]", "value": 26.35, "unit": "%"},
      {"measurement": "Activity", "setting": "Hep 3B2 [30]", "value": 19.52, "unit": "%"},
      {"measurement": "Activity", "setting": "[31]", "value": "Active"},
      {"measurement": "Activity", "setting": "Huh-7 [32]", "value": 14.94, "unit": "%"}
    ]}
  ]
}
